Reference: ChEMBL document CHEMBL1201862, “PubChem BioAssay data set” (2004)
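Values below derive from 48-hour exposures of cells grown in 96-well plates, with endpoints linearly interpolated between the two concentrations bracketing the appropriate inhibition level. At the GI50, growth is halved.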 Calls of active or inactive are those of the source. Cut-off read from the data, not from the text of the source: active = GI50 up to about 1.1 µM and inactive = higher.

Key:
Assay in all cases: inhibition of tumour cell growth, NCI panel, 48 h
786-0 = tested on: 786-0
A549 = tested on: A549
BT-549 = tested on: BT-549
CAKI-1 = tested on: CAKI-1
CCRF-CEM = tested on: CCRF-CEM
EKVX = tested on: EKVX
HOP-92 = tested on: HOP-92
HT-29 = tested on: HT-29
KM12 = tested on: KM12
M14 = tested on: M14
MOLT-4 = tested on: MOLT-4
NCI-H23 = tested on: NCI-H23
NCI-H460 = tested on: NCI-H460
NCI-H522 = tested on: NCI-H522
OVCAR-8 = tested on: OVCAR-8
PC-3 = tested on: PC-3
SF-268 = tested on: SF-268
TK-10 = tested on: TK-10
UACC-257 = tested on: UACC-257
UO-31 = tested on: UO-31

Measured: GI50

CN(C)c1ccc(/C=N/NC(=S)Nc2ccccc2)cc1
inactive: 786-0 > 100 µM | A549 > 100 µM | BT-549 > 100 µM | CAKI-1 > 100 µM | CCRF-CEM > 100 µM | EKVX > 100 µM | HOP-92 > 100 µM | HT-29 > 100 µM | KM12 > 100 µM | M14 > 100 µM | MOLT-4 > 100 µM | NCI-H23 > 100 µM | NCI-H460 > 100 µM | NCI-H522 > 100 µM | OVCAR-8 > 100 µM | PC-3 > 100 µM | SF-268 > 100 µM | TK-10 > 100 µM | UACC-257 > 100 µM | UO-31 > 100 µM

CCN(CC)CCNc1ccc(/N=N/c2ccc(S(N)(=O)=O)cc2)c2ccccc12
inactive: 786-0 4.62 µM | A549 4.99 µM | BT-549 13.6 µM | CAKI-1 13.7 µM | CCRF-CEM 4.51 µM | EKVX 19 µM | HOP-92 14.9 µM | HT-29 5.96 µM | KM12 6.01 µM | M14 3.72 µM | MOLT-4 6.25 µM | NCI-H23 23.2 µM | NCI-H460 7.4 µM | NCI-H522 14.9 µM | OVCAR-8 5.82 µM | PC-3 6.93 µM | SF-268 10.1 µM | TK-10 19.1 µM | UACC-257 14.9 µM | UO-31 5.56 µM

O=C1C(O)=C(CCCCCCCCC2CCCCC2)C(=O)c2ccccc21 [MENOCTONE]
inactive: 786-0 6.01 µM | A549 5.58 µM | BT-549 11.7 µM | CAKI-1 5.5 µM | CCRF-CEM 2.72 µM | EKVX 4.55 µM | HOP-92 10 µM | HT-29 12 µM | KM12 8.49 µM | M14 10.8 µM | MOLT-4 2.58 µM | NCI-H23 3.33 µM | NCI-H460 4.3 µM | NCI-H522 6.24 µM | OVCAR-8 8.67 µM | PC-3 5.09 µM | SF-268 7.03 µM | TK-10 14.7 µM | UACC-257 6.28 µM | UO-31 8.34 µM

COC(=O)[C@]1(NC(=O)c2ccccc2)C[C@H]1C=O
inactive: 786-0 > 100 µM | A549 > 100 µM | BT-549 98.2 µM | CAKI-1 > 100 µM | CCRF-CEM 21.6 µM | EKVX > 100 µM | HOP-92 > 100 µM | HT-29 > 100 µM | KM12 > 61.5 µM | M14 > 100 µM | MOLT-4 > 64.7 µM | NCI-H23 > 100 µM | NCI-H460 15 µM | NCI-H522 > 61.1 µM | OVCAR-8 > 100 µM | PC-3 > 100 µM | SF-268 > 84.5 µM | TK-10 > 100 µM | UACC-257 > 100 µM | UO-31 > 100 µM

COC(=O)CC[C@@H](C)[C@H]1CC[C@H]2[C@@H]3CC[C@@H]4C[C@H](O)CC[C@]4(C)[C@H]3CC[C@]12C
inactive: 786-0 18.5 µM | A549 18.5 µM | BT-549 16.2 µM | CAKI-1 17.9 µM | CCRF-CEM 18.2 µM | EKVX 19.2 µM | HOP-92 13.8 µM | HT-29 16.6 µM | KM12 17.5 µM | M14 18.5 µM | MOLT-4 14.5 µM | NCI-H23 16.5 µM | NCI-H460 19.3 µM | NCI-H522 18.3 µM | OVCAR-8 19 µM | PC-3 17.3 µM | SF-268 21.6 µM | TK-10 20.3 µM | UACC-257 14.8 µM | UO-31 19 µM

OC1CCCCCCCCCCC1[S+]1CCCC1.O[B-](F)(F)F (stereo not given)
inactive: 786-0 > 100 µM | A549 96.6 µM | BT-549 > 100 µM | CAKI-1 > 100 µM | CCRF-CEM > 100 µM | EKVX > 100 µM | HOP-92 44.1 µM | HT-29 88.9 µM | KM12 > 100 µM | M14 > 100 µM | MOLT-4 > 100 µM | NCI-H23 72.6 µM | NCI-H460 > 100 µM | NCI-H522 > 100 µM | OVCAR-8 > 100 µM | PC-3 56.8 µM | SF-268 > 100 µM | TK-10 > 100 µM | UACC-257 38.8 µM | UO-31 > 100 µM

C[N+](C)(C)C(C1=CCCC1=O)c1ccccc1 (stereo not given)
inactive: 786-0 19.7 µM | A549 > 100 µM | BT-549 37.2 µM | CAKI-1 24.5 µM | CCRF-CEM 12.5 µM | EKVX > 100 µM | HOP-92 26.4 µM | HT-29 23.5 µM | KM12 19 µM | M14 > 100 µM | MOLT-4 24.1 µM | NCI-H23 45.2 µM | NCI-H460 28.4 µM | NCI-H522 18.7 µM | OVCAR-8 25 µM | PC-3 35.5 µM | SF-268 18.6 µM | TK-10 48.5 µM | UACC-257 22.8 µM | UO-31 > 100 µM
